Laboratory results as given in patent US6361788B1, “Synergistic biocide composition” (Thor Chemie GmbH, priority 1997, dated 2002).

Key:
Format in all cases: cell-based
Conditions in all cases: for growth of the microorganism: MIT ppm = row head c0
Escherichia coli = test: MIC and synergy of MIT and BIT in Müller-Hinton broth, 72 h; for growth of the microorganism: key: growth of the microorganism took place (symbol '+'); or not (symbol '−')
Experimental: For this purpose, aqueous mixtures were produced with various concentrations of 2-methylisothiazolin-3-one (MIT) and 1,2-benzisothiazolin-3-one (BIT) and the activity of these mixtures on Escherichia coli (International Mycological Institute, Strain No. IMI 362054) was tested.
In addition to the biocide component and water, the aqueous mixtures contained a nutrient medium, namely a Müller-Hinton broth (commercial product “Merck No. 10393”). The cell density of Escherichia coli was 10^6 cells/mL. The incubation time was 72 h at 25° C. Each sample was incubated on an incubation shaker at 120 rpm.
(§1) The synergy index is calculated according to the method of F. C. Kull et al., Applied Microbiology, Vol. 9 (1961), p. 538. Here the synergy index is calculated using the following formula:
(§2) Synergy index SI=Qa/QA+Qb/QB.
When the synergy index has the value 1, this means that there is an addition of the activity of the two biocides. When the synergy index has a value of less than 1, this means that a synergy of the two biocides exists.

Pseudomonas stutzeri = test: as above; for growth of the microorganism: key: growth of the microorganism took place (symbol '+'); or not (symbol '−')
Experimental: as §1, §2
The synergy of MIT and BIT against the microorganism Pseudomonas stutzeri is shown as in Example 1.
The test batches again contained a Müller-Hinton broth as a nutrient medium. The cell density was 10^6 cells/mL. The incubation time was 72 h at 25° C. Each sample was incubated on an incubation shaker at 120 rpm.

Aspergillus niger = test: MIC and synergy of MIT and BIT in Sabouraud maltose broth, 96 h; for growth of the microorganism: key: growth of the microorganism took place (symbol '+'); or not (symbol '−')
Experimental: as §1, §2
The synergy of the two active substances MIT and BIT against the microorganism Aspergillus niger is shown as in Example 1.
The test batches contained a Sabouraud maltose broth as a nutrient medium. The spore concentration was 10^6 per mL. The incubation time was 96 h at 25° C. Each sample was incubated on an incubation shaker at 120 rpm.

[1] = BIT share of the BIT/MIT mixture at MIC, 72 h

For `O=c1[nH]sc2ccccc12` [BIT, 1,2-benzisothiazolin-3-one], the “MIC at Total concentration BIT + MIT Qa + Qb” value (Escherichia coli; 72 h) was 25 ppm, the Qa/QA (Escherichia coli; 72 h) was 1.00 and the “Synergy index Qa/QA + Qb/QB” value (Escherichia coli; 72 h, method of Kull) was 1.00. For the same compound, the “growth of the microorganism” value (Escherichia coli; BIT 1 ppm, 72 h) was “+”, the “growth of the microorganism” value (Escherichia coli; BIT 2.5 ppm, 72 h) was “+” and the “growth of the microorganism” value (Escherichia coli; BIT 5 ppm, 72 h) was “+”. For the same compound, the “growth of the microorganism” value (Escherichia coli; BIT 7.5 ppm, 72 h) was “+”, the “growth of the microorganism” value (Escherichia coli; BIT 10 ppm, 72 h) was “+” and the “growth of the microorganism” value (Escherichia coli; BIT 12.5 ppm, 72 h) was “+”. The “growth of the microorganism” value (Escherichia coli; BIT 15 ppm, 72 h) was “+”, the “growth of the microorganism” value (Escherichia coli; BIT 17.5 ppm, 72 h) was “+” and the “growth of the microorganism” value (Escherichia coli; BIT 20 ppm, 72 h) was “+”. The “growth of the microorganism” value (Escherichia coli; BIT 25 ppm, 72 h) was “−”, the “growth of the microorganism” value (Escherichia coli; BIT 30 ppm, 72 h) was “−” and the “growth of the microorganism” value (Escherichia coli; BIT 35 ppm, 72 h) was “−”. For the same compound, the “MIC at BIT concentration Qa” value (Escherichia coli; [1]) was 25 ppm, the MIC value (Escherichia coli; used alone, 72 h at 25° C.) was 25 ppm and the “MIC at Total concentration BIT + MIT Qa + Qb” value (Pseudomonas stutzeri; 72 h) was 20 ppm. For the same compound, the Qa/QA (Pseudomonas stutzeri; 72 h) was 1.00, the “Synergy index Qa/QA + Qb/QB” value (Pseudomonas stutzeri; 72 h) was 1.00 and the “growth of the microorganism” value (Pseudomonas stutzeri; BIT 0.5 ppm, 72 h) was “+”. The “growth of the microorganism” value (Pseudomonas stutzeri; BIT 1 ppm, 72 h) was “+”, the “growth of the microorganism” value (Pseudomonas stutzeri; BIT 2.5 ppm, 72 h) was “+” and the “growth of the microorganism” value (Pseudomonas stutzeri; BIT 5 ppm, 72 h) was “+”. The “growth of the microorganism” value (Pseudomonas stutzeri; BIT 7.5 ppm, 72 h) was “+”, the “growth of the microorganism” value (Pseudomonas stutzeri; BIT 10 ppm, 72 h) was “+” and the “growth of the microorganism” value (Pseudomonas stutzeri; BIT 15 ppm, 72 h) was “+”. For the same compound, the “growth of the microorganism” value (Pseudomonas stutzeri; BIT 20 ppm, 72 h) was “−”, the “growth of the microorganism” value (Pseudomonas stutzeri; BIT 25 ppm, 72 h) was “−” and the “growth of the microorganism” value (Pseudomonas stutzeri; BIT 30 ppm, 72 h) was “−”. For the same compound, the “MIC at BIT concentration Qa” value (Pseudomonas stutzeri; [1]) was 20 ppm, the MIC value (Pseudomonas stutzeri; used alone, 72 h at 25° C.) was 20 ppm and the “MIC at Total concentration BIT + MIT Qa + Qb” value (Aspergillus niger; 96 h) was 750 ppm. The Qa/QA (Aspergillus niger; 96 h) was 1.00, the “Synergy index Qa/QA + Qb/QB” value (Aspergillus niger; 96 h) was 1.00 and the “growth of the microorganism” value (Aspergillus niger; BIT 5 ppm, 96 h) was “+”. The “growth of the microorganism” value (Aspergillus niger; BIT 10 ppm, 96 h) was “+”, the “growth of the microorganism” value (Aspergillus niger; BIT 25 ppm, 96 h) was “+” and the “growth of the microorganism” value (Aspergillus niger; BIT 50 ppm, 96 h) was “+”. For the same compound, the “growth of the microorganism” value (Aspergillus niger; BIT 75 ppm, 96 h) was “+”, the “growth of the microorganism” value (Aspergillus niger; BIT 100 ppm, 96 h) was “−” and the “growth of the microorganism” value (Aspergillus niger; BIT 150 ppm, 96 h) was “−”. For the same compound, the “MIC at BIT concentration Qa” value (Aspergillus niger; share of the BIT/MIT mixture at MIC, 96 h) was 750 ppm and the MIC value (Aspergillus niger; used alone, 96 h at 25° C.) was 100 ppm.
